Results on 3 molecules are retold here after patent publication EP0542609B1, “3-sulfonylamino-2-(1H)-quinolinones and 7-aza derivatives as excitatory amino acids antagonists” (ADIR ET COMPAGNIE, priority 1991, dated 1993).

The target in experiment [1] is récepteur AMPA. Put plainly: Membrane binding (3H-AMPA), rat cortex homogenate. The note with it: binding to AMPA receptor, rat cortex membranes, 4°C, 30 min. The method, then: Il est réalisé à partir d'un homogénat de cortex de Rat. Le culot membranaire est classiquement préparé dans un tampon saccharose par centrifugations différentielles puis congelé jusqu'à utilisation. Après décongélation, 200 µl d'homogénat de membranes sont repris dans un tampon Tris HCl (30 mM), CaCl₂ (2,5 mM), pH 7,4 et incubés à 4°C pendant 30 minutes en présence de 25 µl de ³H-AMPA ou de ³H-Kainate et de 25 µl du produit à tester. La liaison non-spécifique est déterminée en présence de 10 µM de quisqualate (binding AMPA) ou de 10 µM d'acide kainique (binding kainate). Les membranes sont ensuite isolées par filtration. Après séchage des filtres, la radioactivité est mesurée par scintillation.

The subject of another experiment is récepteur kainate. Put plainly: Kainate-induced currents in Xenopus oocytes injected with rat cerebral cortex mRNA (two-electrode voltage clamp). Format: cell-based. The note with it: Xenopus oocyte, kainate 100 µM, -60 mV; read-out: Courant Kainate IC50. As to the method:
(§1) Des oocytes de Xenopus sont injectés de 50 ng d'ARNm poly (A^+) isolés de cortex cérébral de Rat et incubés 2 à 3 Jours à 18°C pour en permettre l'expression protéique. Les courants entrants induits par les AAE sont mesurés dans un milieu de composition : NaCl (82,5 mM), KCl (2,5 mM), CaCl₂ (1 mM), MgCl₂ (1 mM), NaH₂PO₄ (1 mM), HEPES (5 mM), pH 7,4 par la méthode du Voltage-clamp à 2 électrodes (potentiel = - 60 mV). Pour la mesure des courants induits par le NMDA et la glycine, MgCl₂ est absent du milieu et le CaCl₂ est amené à la concentration de 2 mM. Les agonistes AAE induisant les courants sont utilisés aux concentrations suivantes : kainate : 100 µM; AMPA : 30 µM; glycine/NMDA : 3/30 µM. Le produit étudié est appliqué 30 secondes avant et durant l'application de l'agoniste.

In a further experiment the test system is récepteurs AMPA/Kainate. Put plainly: Hippocampal EPSP induced by AMPA/Kainate receptor activation (rat hippocampal slices, Schäffer collaterals stimulation). The class given is cell-based. The note with it: for IC50: rat hippocampal slices, CA1, in presence of Mg++ (blocks NMDA receptors), read-out: IC50 (inhibition des EPSP hippocampiques induits par l'activation des récepteurs AMPA/Kainate); for EPSP hippocampique IC50 AMPA-Kainate/IC50 NMDA-Glycine: ratio of IC50 on AMPA-Kainate EPSP to IC50 on NMDA-Glycine EPSP. The method, then: Des coupes transversales (500 µm) d'hippocampe de Rat sont placées dans un milieu de composition : NaCl (120 mM), KCl (5 mM), CaCl₂ (1 mM), MgSO₄ (1 mM), KH₂PO₄ (1,3 mM), NaHCO₃ (20 mM), HEPES (10 mM), glucose (10 mM), pH 7,35. Les "EPSP" sont enregistrés dans le champ dendritique de la région CA1 lors de stimulations toutes les 30 secondes de la stratum radiatum (50-100 µA, 20 µs). Les EPSP sont évalués au maximum de l'onde négative. Le produit étudié est appliqué durant 10 minutes.

In experiment [2] the target is récepteur AMPA. Put plainly: AMPA-induced currents in Xenopus oocytes injected with rat cerebral cortex mRNA (two-electrode voltage clamp). Format: cell-based. The following applies: for Ki: Xenopus oocyte, AMPA 30 µM, -60 mV, read-out: Courant AMPA Ki; for Oocyte de Xenopus Ki AMPA/Ki NMDA/Gly: ratio of Ki on AMPA current to Ki on NMDA/Gly current. As to the method:
as §1
For orientation: In two-electrode clamp one electrode senses voltage and the other passes current.

One may read the Ki as the dissociation constant of the complex between target and ligand, obtained from inhibition or displacement. As to `N#Cc1cc2c(cc1[N+](=O)[O-])=NC(=O)C(=O)N=2` [CNQX, 6-cyano-7-nitroquinoxaline-2,3-dione], the Ki worked out at 70 nM at récepteur AMPA [1] and 400 nM at récepteur AMPA [2]. Besides, the figures for the IC50 in the experiment with récepteur kainate and in the experiment on récepteurs AMPA/Kainate were 270 nM and 2900 nM, respectively. Further, in the experiment on récepteurs AMPA/Kainate, the “EPSP hippocampique IC50 AMPA-Kainate/IC50 NMDA-Glycine” value was 0,03. The “Oocyte de Xenopus Ki AMPA/Ki NMDA/Gly” value with récepteur AMPA [2] is on record as 0,19.

With `O=c1[nH]c2cc([N+](=O)[O-])ccc2cc1NS(=O)(=O)C(F)(F)F` [Exemple 2, 7-Nitro-3-(trifluorométhylsulfonylamino)-2-(1H)-quinoléinone], the affinity at récepteur AMPA [1] corresponds to a Ki of 600 nM. The IC50 in the experiment with récepteur kainate was determined as 500 nM. For the same molecule, in the experiment on récepteurs AMPA/Kainate, the IC50 came out at 10000 nM and the “EPSP hippocampique IC50 AMPA-Kainate/IC50 NMDA-Glycine” value is 0,25. Besides, on récepteur AMPA [2], the Ki was found to be 370 nM and the “Oocyte de Xenopus Ki AMPA/Ki NMDA/Gly” value was 0,60.

On to `NS(=O)(=O)c1cccc2c3c(cc([N+](=O)[O-])c12)=NC(=O)C(=O)N=3` [NBQX, 6-nitro-7-sulfamoylbenzo[f]quinoxaline-2,3-dione], for which the IC50 with récepteur kainate was found to be 60 nM. Further, in the experiment on récepteurs AMPA/Kainate, the IC50 was determined as 1000 nM and the “EPSP hippocampique IC50 AMPA-Kainate/IC50 NMDA-Glycine” value was << 0,001. On récepteur AMPA [2], the inhibitory constant (Ki) worked out at 60 nM and the “Oocyte de Xenopus Ki AMPA/Ki NMDA/Gly” value is << 0,001.
